Results: patent US12310946B2, “Pharmaceutical composition for oral administration of edaravone and method of administering same” (MITSUBISHI TANABE PHARMA CORPORATION, priority 2020, dated 2025)
Read-outs that look alike come from different tables or passages of the source.

Experiments:
[1] = Clinical study #3: PK of edaravone oral formulation (formula #3), fasted vs after high-fat, standard or light meal; analysis of variance; format: in vivo, human; settings: 105 mg oral; for Cmax Max: in ng/mL; for AUC(0-inf) / Cmax / Tmax / half-life: male, human, plasma, po, 105 mg
Procedure: Effects of meal consumption before administration of the edaravone oral formulation on the pharmacokinetics of edaravone were evaluated. Specifically, clinical studies #1, #2, and #3 described below were conducted on separate days in Japanese healthy adult male subjects. In each of clinical studies #1, #2, and #3, one dose each of edaravone oral formulations (edaravone suspensions) of formulas #1, #2, and #3 shown in Table 1 below were used respectively and administered orally once during the study period. For each clinical study, a reference study was conducted (reference example), in which the edaravone oral formulation was administered in fasted conditions as described below, and in each clinical study and the corresponding reference study, the edaravone oral formulation was each administered to the same subjects.
For the high-fat meal, a meal with total calories per meal of 800 to 1000 kilocalories and calorie intake from lipid of 50% was used. For the standard meal, a meal with total calories per meal of 400 to 500 kilocalories and calorie intake from lipid of 25% was used. For the light meal, a liquid-type nutritional supplement with total calories per meal of 250 kilocalories (enteral nutritional supplement: Ensure Liquid (trade name)) was used.
As examples, the edaravone oral formulation (formula #3) was administered orally to each subject of 8 hours after high-fat meal consumption, 4 hours after standard meal consumption, and 2 hours after light meal consumption. Blood samples were each collected before the administration, and 5 minutes, 15 minutes, 30 minutes, 45 minutes, 1 hour, 1.5 hours, 2 hours, 4 hours, 6 hours, 8 hours, 10 hours, 12 hours, 24 hours, 36 hours, and 48 hours after the administration, and the concentrations of unchanged edaravone in plasma were measured. In addition, as a comparative example, the edaravone oral formulation was administered orally to the same subjects 2 hours after standard meal consumption, blood samples were collected, and the concentrations of unchanged edaravone in plasma were measured in the same manner. On the other hand, as a reference example, the edaravone oral formulation was administered orally to the same subjects in fasted conditions, blood samples were collected, and the concentrations of unchanged edaravone in plasma were measured in the same manner. For the administration in fasted conditions, the edaravone oral formulation was administered orally after a lapse of 10 hours or longer from the previous meal consumption. None of the subjects consumed a next meal until the blood sample collection 4 hours after the administration was completed.
That is, from the results of the edaravone PK parameters, an analysis of variance was conducted on the AUC and Cmax in consideration of the meal condition. The spaghetti plots in FIG. 1 show results from individual subjects, in which results from the same subjects are connected with lines between results in the administration in fasted conditions and results in the postprandial administration.

[2] = Clinical study #4: PK of edaravone oral formulation (formula #2), high-fat meal 1 hour after administration vs fasted; format: in vivo, human; settings: 100 mg oral; for partial AUC / AUC(0-inf) / Cmax / Tmax / half-life: male, human, plasma, po, 100 mg; for AUC(0-inf) / Cmax / Tmax / half-life: mean (n = 9)
Procedure: Effects of meal consumption 1 hour after administration of the edaravone oral formulation on the pharmacokinetics of edaravone were evaluated. Specifically, a clinical study #4 described below was conducted on the same subjects in Japanese healthy adult male subjects. In the clinical study #4, the edaravone oral formulation of the formula #2 in Table 1 above was used and administered orally once during the study period. In addition, the same high-fat meal as that used in Example 1 above was used.
As a post-administration consumption group, the same subjects in fasted conditions after a lapse of 10 hours or longer from meal consumption were orally administered with the edaravone oral formulation, and the high-fat meal was consumed 1 hour after the administration. Blood samples were each collected before the administration, and 5 minutes, 15 minutes, 30 minutes, 1 hour, 1.5 hours, 2 hours, 4 hours, 6 hours, 8 hours, 12 hours, 24 hours, 36 hours, and 48 hours after the administration, and the concentrations of unchanged edaravone in plasma were measured. The consumption of the high-fat meal 1 hour after the administration was carried out after the blood sample collection 1 hour after the administration, and a subsequent meal was not consumed until the blood sample collection 4 hours after the administration was completed. On the other hand, as a fasted group for reference, the edaravone oral formulation was administered orally to the same subjects in fasted conditions, blood samples were collected, and the concentrations of unchanged edaravone in plasma were measured in the same manner.
In addition, the AUC0-∞ after the administration of the edaravone oral formulation was evaluated separately on the results from 0 hour to 1 hour after the administration (0 to 1 h, before the consumption of a meal resumed after the administration) (AUC0-1h) and the results 1 hour after the administration (1 h to ∞ h, after the consumption of a meal resumed after the administration) (AUC1h-∞) for the post-administration consumption group (1 h before high-fat meal) and the fasted group (Fasted).

[3] = 2 h after standard meal vs fasted
[4] = 4 h after standard meal vs fasted
[5] = 8 h after high-fat meal vs fasted
[6] = formula #3, 2 h after light meal, mean (n = 16)
[7] = formula #3, 2 h after standard meal, mean (n = 16)
[8] = formula #3, 4 h after standard meal, mean (n = 16)
[9] = formula #3, 8 h after high-fat meal, mean (n = 16)
[10] = formula #3, fasted, mean (n = 16)
[11] = 1 h before high-fat meal vs fasted
[12] = high-fat meal 1 hour after administration vs fasted
[13] = formula #2, 1 h before high-fat meal

CC1=NN(c2ccccc2)C(=O)C1 [Edaravone, 3-methyl-1-phenyl-2-pyrazolin-5-one]
change in the AUC in comparison with fasted ([1]; 2 h after light meal vs fasted): no decrease and → | change in the Cmax in comparison with fasted ([1]; 2 h after light meal vs fasted): no decrease and → | decrease in the AUC in comparison with fasted [1, 3]: (21% ↓) | decrease in the Cmax in comparison with fasted [1, 3]: (45% ↓) | Cmax Min ([1]; 2 hours after light meal): 0.388 µg/mL | Cmax Max ([1]; 2 hours after light meal): 3237 | change in the AUC in comparison with fasted [1, 4]: no decrease and → | change in the Cmax in comparison with fasted [1, 4]: no decrease and → | Cmax Min ([1]; 4 hours after standard meal): 0.642 µg/mL | Cmax Max ([1]; 4 hours after standard meal): 4286 | change in the AUC in comparison with fasted [1, 5]: no decrease and → | change in the Cmax in comparison with fasted [1, 5]: no decrease and → | Cmax Min ([1]; 8 hours after high-fat meal): 0.595 µg/mL | Cmax Max ([1]; 8 hours after high-fat meal): 5270 | Cmax Min ([1]; fasted): 0.797 µg/mL | Cmax Max ([1]; fasted): 4816 | AUC(0-inf) ([1]; 2 hours after light meal, analysis of variance, read-out: AUC0-∞ Least-square mean): 1.89 µg·h/mL | Cmax ([1]; 2 hours after light meal, analysis of variance, read-out: Cmax Least-square mean): 1.66 µg/mL | Cmax ([1]; 2 hours after light meal, read-out: Cmax Median): 1.96 µg/mL | AUC(0-inf) ([1]; 4 hours after standard meal, analysis of variance, read-out: AUC0-∞ Least-square mean): 1.99 µg·h/mL | Cmax ([1]; 4 hours after standard meal, analysis of variance, read-out: Cmax Least-square mean): 1.76 µg/mL | Cmax ([1]; 4 hours after standard meal, read-out: Cmax Median): 1.74 µg/mL | AUC(0-inf) ([1]; 8 hours after high-fat meal, analysis of variance, read-out: AUC0-∞ Least-square mean): 2.12 µg·h/mL | Cmax ([1]; 8 hours after high-fat meal, analysis of variance, read-out: Cmax Least-square mean): 2.19 µg/mL | Cmax ([1]; 8 hours after high-fat meal, read-out: Cmax Median): 2.24 µg/mL | Cmax ([1]; fasted and each postprandial administration alike, read-out: Cmax, median of values of each subject): ~2 µg/mL | Cmax ([1]; fasted and each postprandial administration alike, read-out: Cmax, range of values of each subject): 1 to 5 µg/mL | AUC(0-inf) ([1]; fasted, analysis of variance, read-out: AUC0-∞ Least-square mean): 2.07 µg·h/mL | Cmax ([1]; fasted, analysis of variance, read-out: Cmax Least-square mean): 2.02 µg/mL | Cmax ([1]; fasted, read-out: Cmax Median): 1.99 µg/mL | Tmax [1, 6]: 0.41 h | half-life [1, 6]: 7.31 h | AUC(0-inf) ([1]; formula #3, 2 h after light meal, mean (n = 16), read-out: AUC0-∞): 1.96 µg·h/mL | Cmax ([1]; formula #3, 2 h after light meal, mean (n = 16), read-out: Cmax): 1.9 µg/mL | Tmax [1, 7]: 0.63 h | half-life [1, 7]: 11.2 h | AUC(0-inf) ([1]; formula #3, 2 h after standard meal, mean (n = 16), read-out: AUC0-∞): 1.72 µg·h/mL | Cmax ([1]; formula #3, 2 h after standard meal, mean (n = 16), read-out: Cmax): 1.28 µg/mL | Tmax [1, 8]: 0.44 h | half-life [1, 8]: 9.05 h | AUC(0-inf) ([1]; formula #3, 4 h after standard meal, mean (n = 16), read-out: AUC0-∞): 2.07 µg·h/mL | Cmax ([1]; formula #3, 4 h after standard meal, mean (n = 16), read-out: Cmax): 2.02 µg/mL | Tmax [1, 9]: 0.36 h | half-life [1, 9]: 7.38 h | AUC(0-inf) ([1]; formula #3, 8 h after high-fat meal, mean (n = 16), read-out: AUC0-∞): 2.21 µg·h/mL | Cmax ([1]; formula #3, 8 h after high-fat meal, mean (n = 16), read-out: Cmax): 2.52 µg/mL | Tmax [1, 10]: 0.38 h | half-life [1, 10]: 8.17 h | AUC(0-inf) ([1]; formula #3, fasted, mean (n = 16), read-out: AUC0-∞): 2.17 µg·h/mL | Cmax ([1]; formula #3, fasted, mean (n = 16), read-out: Cmax): 2.32 µg/mL | change in the AUC0-1h in comparison with fasted [2, 11]: slight decrease | change in the AUC1h-∞ in comparison with fasted [2, 11]: no change | change in the AUC in comparison with fasted [2, 11]: → | change in the Cmax in comparison with fasted [2, 11]: → | decrease in the AUC in comparison with the fasted group [2, 12]: about 10.4% | decrease in the Cmax in comparison with the fasted group [2, 12]: about 17.0% | partial AUC ([2]; 1 h before high-fat meal (n = 9), read-out: AUC0-1h): 0.772 ± 0.519 µg·h/mL | partial AUC ([2]; 1 h before high-fat meal (n = 9), read-out: AUC1h-∞): 0.703 ± 0.202 µg·h/mL | partial AUC ([2]; fasted (n = 9), read-out: AUC0-1h): 0.89 ± 0.349 µg·h/mL | partial AUC ([2]; fasted (n = 9), read-out: AUC1h-∞): 0.756 ± 0.232 µg·h/mL | AUC(0-inf) [2, 13]: 1.48 µg·h/mL | Cmax [2, 13]: 1.5 µg/mL | Tmax [2, 13]: 0.6 h | half-life [2, 13]: 9.65 h | AUC(0-inf) ([2]; formula #2, fasted): 1.65 µg·h/mL | Cmax ([2]; formula #2, fasted): 1.81 µg/mL | Tmax ([2]; formula #2, fasted): 0.36 h | half-life ([2]; formula #2, fasted): 9.33 h
